What was measured:
THS2 = THS2 (Papaver somniferum, UniProt A0A2U9GGW3); experiment: direct in vitro THS assay (kinetic analysis of THS2); conditions: for inhibition of THS2 activity on (7S)-salutaridinol 7-O-acetate: added to the direct assay
[1] = stability of salutaridinol 7-O-acetate in chloroform and aqueous conditions
[2] = substrate of purified recombinant THS2, direct assay quenched after 30 sec

Chain of THS2 (A0A2U9GGW3 whole entry): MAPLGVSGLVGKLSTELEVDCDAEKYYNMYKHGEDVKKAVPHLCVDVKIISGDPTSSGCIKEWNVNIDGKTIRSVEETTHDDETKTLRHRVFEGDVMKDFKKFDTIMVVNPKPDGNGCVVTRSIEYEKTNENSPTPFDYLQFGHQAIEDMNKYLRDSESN

SMILES	inhibition of THS2 activity on (7S)-salutaridinol 7-O-acetate (THS2)	thebaine production by THS2 directly from the substance (THS2; pH 7.0)	formation of m/z 330-byproduct ([1]; exposure to aqueous conditions)	time of formation of m/z 330-byproduct ([1]; exposure to aqueous conditions)	stability ([1]; in chloroform)	pH optimum (THS2; THS2 activity on this substrate, direct assay 30 sec, 40 μM substrate)	positive cooperativity (η) (THS2; substrate of purified recombinant THS2, direct assay)	KA (THS2; [2])	Vmax (THS2; [2])
COC1=C[C@]23CCN(C)[C@H](Cc4ccc(OC)c(O)c42)C3=C[C@@H]1O [(7S)-salutaridinol]	marginally inhibited	did not produce thebaine	–	–	–	–	–	–	–
COC1=C[C@]23CCN(C)[C@H](Cc4ccc(OC)c(O)c42)C3=C[C@@H]1OC(C)=O [(7S)-salutaridinol 7-O-acetate]	–	–	> 70%	< 2 min	relatively stable	8.0	2.3	20 µM	4.0 nmol min^1 μg^−1
COC1=C[C@]23CCN(C)[C@H](Cc4ccc(OC)c(O)c42)C3=CC1=O [salutaridine]	marginally inhibited	–	–	–	–	–	–	–	–

Source: patent US20200325509A1, “Microorganisms and Methods in the Fermentation of Benzylisoquinoline Alkaloids” (Intrexon Corporation, priority 2017, published 2020)
